Test results from patent publication US4489062A, “Pharmaceutical compounds, preparation, use and intermediates therefor and their preparation” (priority 1982, dated 1984).
Where a SMILES comes first, the peptide text is derived from it. [ ]: non-standard residue; d: D form. Phe(4-NO2) = N[C@@H](Cc1ccc([N+](=O)[O-])cc1)C(=O)O

What was measured:
Assay type in all cases: in vivo
male TFW mice = assay: Antagonism by quaternary opioid (N-methylnalorphine) in acetic acid writhing test; settings: for ED50 (mg/kg, s.c.) Saline control (b) / ED50: acetic acid writhing, saline i.p. 20 mins. before test compound s.c., Ex. compounds calculated as the peptide per se; for Dose ratio (a):(b): ratio of equiactive doses in presence and absence of N-methylnalorphine, calculated from the linear regression of the dose/response curves; for ED50: Mus musculus, 20 min, read-out: ED50 (mg/kg, s.c.) Saline control (b)
Text: (3) The analgesia induced by the peptides in the writhing test upon peripheral (parenteral) administration is antagonised by parenteral administration of the quaternary opioid antagonist N-allyl-normorphine methiodide (N-methylnalorphine; Koczka et al, Acta Chim. Acad. Sci. Hung. 51:393, 1967), i.e. a higher dose of the peptide is required in the presence than in the absence of the opioid for the same effect. As penetration of the blood-brain barrier by the quaternary compound is minimal (c.f. Tavani et al, European J. Pharmacol. 59:151-154, 1979) both the peptide-induced analgesia and the antagonism thereof are effected at the peripheral level.
Groups of six male TFW mice (Tuck) received by intraperitoneal injection either N-methylnalorphine (16 mg/kg) or saline vehicle (0.85%) control at a volume of 10 ml/kg followed after 20 mins. by a solution of the test compound in saline (10 ml/kg, subcutaneous) and after a further 30 mins. by 0.6% acetic acid (25 ml/kg, intraperitoneal). The total number of writhes/stretches per group was then determined over the 5 min. period commencing 15 mins. after administration of the acetic acid. Using linear regression analysis the ED50 figures for the test compounds were calculated (defined as in (B) supra) together with the dose ratios therefor, i.e. the ratios of the dose of compound required for equiactive antinociceptive effect in respectively the presence and the absence of the quaternary compound.

Female Cobs Wistar rats = assay: Antidiarrhoeal activity (castor oil-induced diarrhoea); settings: calculated as the peptide per se; for ED50 (mg/kg, s.c.) antidiarrhoeal, 1.5 hrs.: 1.5 hrs. post castor oil; for ED50 (mg/kg, s.c.) antidiarrhoeal, 2.0 hrs.: 2.0 hrs. post castor oil; for ED50 (mg/kg, s.c.) antidiarrhoeal, 3.0 hrs.: 3.0 hrs. post castor oil
Protocol: Female Cobs Wistar rats (Charles River) were starved for 24 hours prior to subcutaneous administration of the test compound as a solution in 0.85% (w/w) saline and at a volume of 10 ml/kg. Fifteen minutes after the compound each rat received 1 ml. castor oil given orally and the animals were then observed for the appearance of diarrhoea.

female CD1 mice [1] = assay: Irritant-induced writhing test, phenylbenzoquinone (PBQ); settings: s.c. 15 mins. prior to PBQ 2.5 mg/kg, Ex. compounds calculated as the peptide per se; for ED50: Mus musculus, 0.25 h
Text: (§1) (1) Both the hotplate test (Woolfe and MacDonald, J. Pharmacol. Exp. Ther. 80:300, 1944) and the irritant-induced writhing (stretch) test (Vander Wende and Margolin, Fed. Proc. 15:494, 1956) are standard in the art for the investigation of analgesic activity. Whereas it is believed that the pain in the latter can be ameliorated either centrally or peripherally, it is thought that that induced in the hotplate test is affected only at the central level.
(§2) (i) Acetic Acid. Groups of five female CD1 mice (Charles River) received either a test compound or saline vehicle (0.85%) control by subcutaneous injection 15 mins. (unless otherwise indicated) prior to an intraperitoneal injection of 0.6% acetic acid at a dose volume of 25 ml/kg. After a further 20 mins. the writhing or stretching movements induced by the irritant were counted over a 21/2 min. period, a writhe/stretch being identified as an extension of a hindlimb accompanied by constriction of the abdomen.
(ii) Phenylbenzoquinone (PBQ). This test was carried out in a parallel manner to that employing acetic acid, […], except that the period over which the writhing/stretching movements were counted began 10 mins. after administration of the PBQ irritant, the latter being given at a dosage of 2.5 mg/kg and in a dose volume of 10 ml/kg.
(§3) The ED50 figures for the test compounds were calculated, using linear regression analysis, as the dose in the presence of which only half the number of writhes/stretches was induced compared with the controls.

female CD1 mice [2] = assay: Irritant-induced writhing test, acetic acid; settings: s.c. 15 mins. prior to i.p. 0.6% acetic acid, Ex. compounds calculated as the peptide per se; for ED50: Mus musculus, 0.25 h
Text: as §1, §2, §3

Male mice (CFLP strain) = assay: Hotplate test; settings: 55° C. hotplate, 15 mins. after treatment, reaction time twice the pretreatment figure, Ex. compounds calculated as the peptide per se; for ED50: Mus musculus, sc
Text: as §1
Male mice (CFLP strain, Hacking and Churchill) were individually placed in a copper-bottomed perspex box suspended in a water bath at 55° C. and observed for signs of discomfort such as shaking or licking the paws, the reaction time (up to a maximum of 30 secs.) being recorded. Groups of five animals then received either a test compound or saline vehicle (0.85%) control by subcutaneous injection, the test being repeated at 15 mins. after treatment. The ED50 figures for the test compounds were calculated from the number of animals having a posttreatment reaction time which was twice the pretreatment figure.

guinea pigs = assay: Antitussive activity (citric acid aerosol-induced cough); settings: s.c. 30 minutes before 30% citric acid aerosol; calculated as the peptide per se; 95% confidence limits 0.04-2.6 mg/kg
Protocol: In this test procedure, a modification of that described by Boura et al., Br. J. Pharmac., 39/1 (1970) 225, guinea pigs were subjected to an aerosol containing 30% citric acid, 30 minutes after subcutaneous administration of test compound as a solution in 0.85% (w/w) saline, and the number of coughs during a 121/2-minute exposure counted.

rats = assay: Toxicology, 14-day subcutaneous administration, rats; settings: rat; s.c. daily for 14 days at 7.5, 15 or 30 mg/kg per day (as peptide per se)
Protocol: (§4) The diacetate product of Example 1 was administered subcutaneously to rats and marmosets as a solution in 0.85% (w/w) saline at a volume of 0.1 ml/100 g bodyweight. For each species the compound was given daily for 14 days at a dose (calculated as the peptide per se) selected from 7.5, 15 and 30 mg/kg bodyweight per day.

marmosets = assay: Toxicology, 14-day subcutaneous administration, marmosets; settings: s.c. daily for 14 days at 7.5, 15 or 30 mg/kg per day (as peptide per se)
Protocol: as §4

Compound	ED50 (mg/kg, s.c.) Saline control (b) (male TFW mice) [mg/kg]	Dose ratio (a):(b) (male TFW mice)	ED50 (mg/kg, s.c.) antidiarrhoeal, 1.5 hrs. (Female Cobs Wistar rats) [mg/kg]	ED50 (mg/kg, s.c.) antidiarrhoeal, 2.0 hrs. (Female Cobs Wistar rats) [mg/kg]	ED50 (mg/kg, s.c.) antidiarrhoeal, 3.0 hrs. (Female Cobs Wistar rats) [mg/kg]	ED50 (mg/kg, s.c.) PBQ writhing (female CD1 mice [1]) [mg/kg]	ED50 (mg/kg, s.c.) Acetic acid writhing (female CD1 mice [2]) [mg/kg]	ED50 (mg/kg, s.c.), hotplate test (Male mice (CFLP strain)) [mg/kg]	ED50 (male TFW mice) [mg/kg]	ED50 (female CD1 mice [1]) [mg/kg]	ED50 (Male mice (CFLP strain)) [mg/kg]	ED50 (dose required to reduce the number of coughs by 50%) (guinea pigs) [mg/kg]	toxicity attributable to the compound (rats)	clinical signs observed (marmosets)	ED50 (female CD1 mice [2]) [mg/kg]
N--AmidinoTyr--D--Met(Me)--Gly--Phe(4NO2)--Pro.NH2 chloride, hydrochloride [Ex. 4]	0.7	4.2	0.07	0.14	0.84	1.0	0.6	43.8	–	–	–	–	–	–	–
CN1CC[C@]23c4c5ccc(O)c4O[C@H]2[C@@H](O)C=C[C@H]3[C@H]1C5 [Morphine, reference compound]	–	–	–	–	–	–	–	–	0.4	0.38	1.8	–	–	–	–
N=C(N)NCCC[C@@H](NC(=O)[C@@H](N)Cc1ccc(O)cc1)C(=O)NCC(=O)N[C@@H](Cc1ccc([N+](=O)[O-])cc1)C(=O)N1CCC[C@H]1C(N)=O [Ex. 1, H--Tyr--D--Arg--Gly--Phe(4--NO2)--Pro.NH2 diacetate] (H-Y[dR]G[Phe(4-NO2)]P-NH2)	4.6	4.1	0.79	3.19	54.9	4.0	4.3	94.8	–	–	–	0.26	No toxicity attributable to the compound was seen	transient post-dose vomiting and salivation at 30 mg/kg and to a lesser extent at the lower doses	–
COc1ccc2c(c1)c(CC(=O)O)c(C)n2C(=O)c1ccc(Cl)cc1 [Indomethacin, reference compound]	–	–	–	–	–	–	–	–	–	0.9	> 100	–	–	–	–
CCC(=O)O[C@](Cc1ccccc1)(c1ccccc1)[C@H](C)CN(C)C [Dextropropoxyphene, reference compound]	–	1.0	–	–	–	–	–	–	6.8	2.6	25.9	–	–	–	4.2
CC(C)=CCN1CCC2(C)c3cc(O)ccc3CC1C2C (stereo not drawn) [Pentazocine, reference compound]	–	–	–	–	–	–	–	–	–	–	> 100	–	–	–	2.3
H--Tyr--D--Met(Me)--Gly--Phe(4NO2)--Pro.NH2 chloride, hydrochloride [Ex. 2]	1.5	3.3	0.16	0.89	8.61	4.6	1.2	129.5	–	–	–	–	–	–	–
